In brackets after ≈: the same amount, converted by molar mass. Several values for one entry are separate records, joined by “and”; a condition that tells them apart may be missing. Identical values can stand only once. Like-named read-outs stand apart in the source and are kept apart here. One block for each compound: values may come before it.
Tests used:
[1] = test system: P. falciparum male gametes; test: microbe, parasite or virus in culture; conditions: Plasmodium falciparum, 48 h, read-out: inhibition of exflagellation
β-hematin (βH) formation = test: NP-40 mediated cell-free β-hematin assay; conditions: read-out: β-hematin IC50
[2] = test system: Chinese Hamster Ovary (CHO) cell line; test: cells; assay type: cell-based; conditions: Cricetulus griseus, CHO, read-out: CHO IC50
[3] = Plasma protein binding, mouse; assay type: in vitro ADME; conditions: read-out: PPB fu, mouse
[4] = Solubility, miniaturized shake flask method
[5] = In vitro microsomal stability, mouse; assay type: in vitro ADME; conditions: mouse liver microsomes, pH 7.4, read-out: microsomal CLint, app mouse
[6] = Plasma protein binding, human; assay type: in vitro ADME; conditions: pooled human plasma, read-out: PPB fu, human
[7] = In vitro microsomal stability, human; assay type: in vitro ADME; conditions: pooled human liver microsomes, pH 7.4, read-out: microsomal CLint, app human
LogD shake-flask = assay type: physicochemical; conditions: n-octanol/phosphate buffer (1:1), phosphate buffer (pH 7.4) / n-octanol
PvPI4K = PvPI4K (Plasmodium vivax, UniProt A5KB26); test: biochemical; conditions: purified recombinant PvPI4K, 10 μM ATP, ADP-Glo; mean of N ≥ 2; read-out: PvPI4K IC50 ± SD
[8] = Mouse pharmacokinetic studies; conditions: male, BalbC
[9] = In vitro microsomal stability, rat; assay type: in vitro ADME; conditions: rat liver microsomes, pH 7.4, read-out: microsomal CLint, app rat
[10] = test system: multidrug-resistant strain, K1; test: Antiplasmodial activity, parasite lactate dehydrogenase assay, K1; assay type: cell-based, Plasmodium falciparum; conditions: Plasmodium falciparum, K1, 72 h, parasite lactate dehydrogenase assay over 72 h; read-out: Pf IC50 ± SD K1
[11] = test system: P. falciparum NF54 strain; test: Antiplasmodial activity, parasite lactate dehydrogenase assay, NF54; assay type: cell-based, Plasmodium falciparum; conditions: parasite lactate dehydrogenase assay over 72 h, read-out: Pf IC50 ± SD NF54
hERG channels = target: T1, hERG channels (Homo sapiens, UniProt Q12809); test: hERG inhibition, QPatch automated patch clamp assay; assay type: cell-based; conditions: CHO cells stably expressing the hERG channels
T1 construct: expressed in transfected cells; host or cells: CHO cells

Dd2 = test: microbe, parasite or virus in culture; assay type: cell-based; conditions: Plasmodium falciparum, DD2, 72 h, read-out: Dd2 IC50 ± SD
pKa of piperidine N = assay type: physicochemical
Dd2_PI4K_CNV = test: microbe, parasite or virus in culture; assay type: cell-based; conditions: Plasmodium falciparum, 72 h, read-out: Dd2_PI4K_CNV IC50
zebrafish embryos = test: in vivo
in vivo = conditions: zebrafish, in vivo
[12] = cell-free NP-40 detergent-mediated assay, n = 2
[13] = Plasmodium falciparum, NF54, 72 h

Sequence of PvPI4K (A5KB26 entry or part of it): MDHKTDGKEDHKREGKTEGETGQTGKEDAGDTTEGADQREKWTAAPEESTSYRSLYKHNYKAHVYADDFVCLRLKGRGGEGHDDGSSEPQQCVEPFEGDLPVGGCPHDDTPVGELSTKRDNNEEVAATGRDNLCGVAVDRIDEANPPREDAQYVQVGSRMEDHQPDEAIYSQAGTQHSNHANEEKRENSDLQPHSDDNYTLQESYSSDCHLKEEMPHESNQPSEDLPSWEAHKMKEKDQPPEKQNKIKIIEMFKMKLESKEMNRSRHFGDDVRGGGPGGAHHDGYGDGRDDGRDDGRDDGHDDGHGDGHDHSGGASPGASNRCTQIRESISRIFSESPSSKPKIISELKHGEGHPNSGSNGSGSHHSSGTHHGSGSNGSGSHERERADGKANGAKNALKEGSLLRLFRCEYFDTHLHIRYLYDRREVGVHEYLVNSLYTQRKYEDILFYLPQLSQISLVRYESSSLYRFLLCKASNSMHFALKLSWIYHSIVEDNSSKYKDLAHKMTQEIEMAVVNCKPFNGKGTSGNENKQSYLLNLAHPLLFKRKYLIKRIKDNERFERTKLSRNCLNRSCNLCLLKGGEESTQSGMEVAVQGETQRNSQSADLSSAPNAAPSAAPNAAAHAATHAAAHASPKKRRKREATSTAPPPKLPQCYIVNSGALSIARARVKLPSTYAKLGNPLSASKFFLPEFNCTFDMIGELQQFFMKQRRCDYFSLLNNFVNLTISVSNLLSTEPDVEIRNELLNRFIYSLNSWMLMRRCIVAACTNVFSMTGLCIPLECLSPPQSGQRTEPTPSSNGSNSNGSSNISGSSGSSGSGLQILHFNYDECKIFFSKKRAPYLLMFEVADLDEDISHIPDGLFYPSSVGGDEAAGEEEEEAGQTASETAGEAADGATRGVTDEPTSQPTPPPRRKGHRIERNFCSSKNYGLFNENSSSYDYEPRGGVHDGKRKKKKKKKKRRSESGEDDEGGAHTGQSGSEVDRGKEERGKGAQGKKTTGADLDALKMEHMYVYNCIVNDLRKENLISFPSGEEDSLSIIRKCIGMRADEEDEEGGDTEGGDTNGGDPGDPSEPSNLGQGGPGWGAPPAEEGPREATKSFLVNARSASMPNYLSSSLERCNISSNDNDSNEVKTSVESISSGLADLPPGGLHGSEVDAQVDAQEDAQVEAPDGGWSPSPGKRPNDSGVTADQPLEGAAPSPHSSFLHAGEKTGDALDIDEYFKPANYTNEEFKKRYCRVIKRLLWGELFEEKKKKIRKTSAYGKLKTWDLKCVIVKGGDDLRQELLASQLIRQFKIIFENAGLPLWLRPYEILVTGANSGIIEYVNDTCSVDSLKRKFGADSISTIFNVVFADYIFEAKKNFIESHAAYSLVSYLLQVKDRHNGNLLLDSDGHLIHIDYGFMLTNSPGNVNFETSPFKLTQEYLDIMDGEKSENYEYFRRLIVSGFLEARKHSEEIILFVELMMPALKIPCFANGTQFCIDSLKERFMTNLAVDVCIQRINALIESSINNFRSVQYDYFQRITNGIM
T1 sequence (Q12809 whole entry): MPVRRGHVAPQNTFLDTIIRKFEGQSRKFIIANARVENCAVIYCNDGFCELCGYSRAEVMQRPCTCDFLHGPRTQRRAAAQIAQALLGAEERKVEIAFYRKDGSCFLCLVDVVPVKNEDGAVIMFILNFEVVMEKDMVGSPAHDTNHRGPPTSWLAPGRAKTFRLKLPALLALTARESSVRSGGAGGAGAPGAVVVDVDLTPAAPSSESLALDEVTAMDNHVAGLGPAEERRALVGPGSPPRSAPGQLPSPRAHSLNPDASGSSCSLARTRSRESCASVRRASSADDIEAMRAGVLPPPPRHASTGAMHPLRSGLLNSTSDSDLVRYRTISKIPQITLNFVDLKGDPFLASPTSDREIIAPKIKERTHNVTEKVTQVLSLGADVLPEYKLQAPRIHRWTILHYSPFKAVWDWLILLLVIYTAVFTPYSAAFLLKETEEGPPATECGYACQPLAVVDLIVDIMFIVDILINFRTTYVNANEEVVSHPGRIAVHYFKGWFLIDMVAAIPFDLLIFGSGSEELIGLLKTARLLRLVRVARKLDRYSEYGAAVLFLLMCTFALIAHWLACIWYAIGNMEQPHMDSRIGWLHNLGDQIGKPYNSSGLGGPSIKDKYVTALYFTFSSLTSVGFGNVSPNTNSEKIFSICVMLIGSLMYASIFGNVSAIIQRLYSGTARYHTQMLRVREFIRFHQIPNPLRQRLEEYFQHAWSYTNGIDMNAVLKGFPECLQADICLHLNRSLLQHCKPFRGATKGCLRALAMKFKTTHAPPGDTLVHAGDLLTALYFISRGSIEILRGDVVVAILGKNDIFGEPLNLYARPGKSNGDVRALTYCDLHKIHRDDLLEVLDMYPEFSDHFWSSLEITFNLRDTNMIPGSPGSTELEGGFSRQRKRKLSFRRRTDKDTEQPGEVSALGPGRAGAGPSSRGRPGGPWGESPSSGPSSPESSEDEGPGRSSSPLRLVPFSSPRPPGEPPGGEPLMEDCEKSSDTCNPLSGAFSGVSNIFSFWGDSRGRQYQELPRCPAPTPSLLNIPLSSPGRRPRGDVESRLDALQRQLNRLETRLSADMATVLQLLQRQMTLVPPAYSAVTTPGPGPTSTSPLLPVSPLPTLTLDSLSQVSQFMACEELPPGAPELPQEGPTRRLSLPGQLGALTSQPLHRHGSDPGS

IC50 (β-hematin (βH) formation): > 500000 nM
Compound: NS(=O)(=O)c1cccc(-c2ccc3nccc(-c4ccnc(C(F)(F)F)c4)c3n2)c1 [Compound 1]
inhibition at 2 µM [1]: 60%
IC50 ([2]; 48 h): 6000 nM

Compound: CN1CCC(Nc2ccnc3ccc(-c4ccc(C(F)(F)F)nc4)nc23)CC1 [Compound 21, N-(1-Methylpiperidin-4-yl)-6-[6-(trifluoromethyl)pyridin-3-yl]-1,5-naphthyridin-4-amine]
fraction unbound at 5 h, 5 µM [3]: 0.3
solubility at 20 h ([4]; PBS, pH 6.5): 160 µM (≈ 62 µg/mL)
solubility at 20 h ([4]; aqueous solution): 160 µM (≈ 62 µg/mL)
CLint scaled at 1 µM [5]: < 46 mL/min/kg
fraction unbound at 5 h, 5 µM [6]: 0.5
IC50 (β-hematin (βH) formation; [12]): 35000 nM and < 60000 nM
CLint scaled at 1 µM [7]: < 10 mL/min/kg
logD at 3 h (LogD shake-flask): 1.86
IC50 (PvPI4K): 175 ± 82 nM
in vivo mouse CLu [8]: 22 mL/min/kg
Vd at 24 h ([8]; in vivo, iv, 2 mg/kg): 12 L/kg
half-life at 24 h ([8]; in vivo, iv, 2 mg/kg): 16 h
bioavailability at 24 h ([8]; in vivo, po): 99%
in vivo mouse CLb ([8]; iv, 2 mg/kg): 9.90 mL/min/kg
CLint scaled at 1 µM [9]: < 21 mL/min/kg
IC50 [10]: 162 ± 4 nM
IC50 ([2]; MTT assay over 48h): > 50000 nM
IC50 [11, 13]: 52 ± 14 nM

Compound: O[C@H]1CNCC[C@H]1Nc1ccnc2ccc(-c3ccc(C(F)(F)F)nc3)nc12 (relative stereo) [Compound 27, rac-cis-4-[[6-[6-(Trifluoromethyl)pyridin-3-yl]-1,5-naphthyridin-4-yl]amino]piperidin-3-ol]
solubility at 20 h ([4]; aqueous solution): 200 µM (≈ 77.9 µg/mL)
IC50 (hERG channels): 24500 nM
IC50 (Dd2): 437 ± 71 nM
IC50 (β-hematin (βH) formation; [12]): 140000 ± 7000 nM
logD at 3 h (LogD shake-flask): 1.02
pKa (pKa of piperidine N): 8.99
IC50 (PvPI4K): 370 ± 175 nM
IC50 (Dd2_PI4K_CNV): 381 ± 17 nM
IC50 [10]: 334 ± 147 nM
IC50 ([2]; MTT assay over 48h): 33000 nM
IC50 [11, 13]: 140 nM
IC50 [11]: 130 ± 24 nM

Compound: CCN(CC)c1ccc(C=O)cc1 [DEAB, Diethylaminobenzaldehyde]
teratogen (zebrafish embryos; classification): yes
TI (teratogenic index) (zebrafish embryos; ratio between LC50 and AC50, >3 classifies as teratogen): 4.6
AC50 (in vivo; 50% larvae population show a teratogenic phenotype): 1000 nM
LC50 at 96 h (in vivo; concentration at which 50% of larvae die at 96 h post fertilization): 4600 nM
